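Growth conditions: 96-well plates. Treatment: test compound, 48 hours, 5 concentrations. Analysis: linear interpolation between bracketing concentrations; unreached endpoints set to highest concentration. Abbreviation: GI50, concentration required for 50% inhibition of growth. TGI is the concentration that stops growth completely.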
What was measured:
Test in all cases: NCI tumour cell line growth inhibition, 48 h
[1] = test system: SN12C renal
[2] = test system: T-47D breast
[3] = test system: EKVX NSCLC
[4] = test system: COLO 205 colon
[5] = test system: UACC-62 melanoma
[6] = test system: HCT-15 colon
[7] = test system: SK-MEL-2 melanoma
[8] = test system: NCI-H460 lung
[9] = test system: SNB-19 CNS
[10] = test system: IGROV1 ovarian
[11] = test system: MDA-MB-231 breast
[12] = test system: A549 NSCLC
[13] = test system: NCI-H23 lung
[14] = test system: M14 melanoma
[15] = test system: K-562 leukemia
[16] = test system: HS 578T breast
[17] = test system: OVCAR-8 ovarian
[18] = test system: SW-620 colon
[19] = test system: UO-31 renal
[20] = test system: MALME-3M melanoma
[21] = test system: HOP-92 NSCLC
[22] = test system: SF-268 CNS
[23] = test system: HOP-62 NSCLC
[24] = test system: MDA-MB-435
[25] = test system: OVCAR-5 ovarian
[26] = test system: MCF7 breast
[27] = test system: TK-10 renal
[28] = test system: RXF 393 renal
[29] = test system: PC-3 prostate
[30] = test system: CCRF-CEM leukemia
[31] = test system: A498 renal
[32] = test system: NCI-H226 lung
[33] = test system: MOLT-4 leukemia
[34] = test system: 786-0 renal
[35] = test system: SK-MEL-5 melanoma
[36] = test system: ACHN renal
[37] = test system: KM12 colon
[38] = test system: BT-549 breast
[39] = test system: SR leukemia
[40] = test system: CAKI-1 renal
[41] = test system: U251 CNS
[42] = test system: OVCAR-3 ovarian
[43] = test system: NCI-H522 lung
[44] = test system: DU-145 prostate
[45] = test system: HCT-116 colon
[46] = test system: SF-295 CNS
[47] = test system: SNB-75 CNS
[48] = test system: LOX IMVI melanoma
[49] = test system: OVCAR-4 ovarian
[50] = test system: SK-OV-3 ovarian
[51] = test system: UACC-257 melanoma
[52] = test system: HCC-2998 colon
[53] = test system: SF-539 CNS
[54] = test system: NCI/ADR-RES ovarian
[55] = test system: HT29 colon
[56] = test system: SK-MEL-28 melanoma
[57] = test system: RPMI-8226 leukemia
[58] = test system: HL-60(TB) leukemia

Q: Which GI50 [1] does the source give for `CCN(CC)c1ccc(/C=N/NC(=O)CSc2nc3ccccc3c(=O)n2CCc2ccc(S(N)(=O)=O)cc2)c(O)c1` here?
A: Its GI50 is 1.86 µM.

Q: And the TGI [1]?
A: Its TGI is over 100 µM.

Q: And the GI50 [2]?
A: Its GI50 is 1.01 µM.

Q: And the TGI [2]?
A: Its TGI is over 100 µM.

Q: What about the GI50 [3] of the same compound?
A: The GI50 was 1.42 µM.

Q: And the TGI [3]?
A: Its TGI is over 100 µM.

Q: What about the GI50 [4] of the same compound?
A: The GI50 was 3.22 µM.

Q: And the TGI [4]?
A: The TGI was over 100 µM.

Q: And the GI50 [5]?
A: The GI50 was 1.73 µM.

Q: And the TGI [5]?
A: The TGI was 6.37 µM.

Q: And the GI50 [6]?
A: Its GI50 is 2.82 µM.

Q: What about the TGI [6] of the same compound?
A: Its TGI is over 100 µM.

Q: And the GI50 [7]?
A: Its GI50 is 4.34 µM.

Q: What about the TGI [7] of the same compound?
A: The TGI was over 100 µM.

Q: And the GI50 [8]?
A: The GI50 was 0.595 µM.

Q: What about the TGI [8] of the same compound?
A: The TGI was over 100 µM.

Q: And the GI50 [9]?
A: Its GI50 is 3.72 µM.

Q: What about the TGI [9] of the same compound?
A: Its TGI is over 100 µM.

Q: What about the GI50 [10] of the same compound?
A: Its GI50 is 1.48 µM.

Q: And the TGI [10]?
A: Its TGI is over 100 µM.

Q: What about the GI50 [11] of the same compound?
A: The GI50 was 2.27 µM.

Q: What about the TGI [11] of the same compound?
A: The TGI was 50.2 µM.

Q: And the GI50 [12]?
A: The GI50 was 3.1 µM.

Q: And the TGI [12]?
A: The TGI was over 100 µM.

Q: What about the GI50 [13] of the same compound?
A: Its GI50 is 2.99 µM.

Q: What about the TGI [13] of the same compound?
A: Its TGI is over 100 µM.

Q: What about the GI50 [14] of the same compound?
A: Its GI50 is 0.754 µM.

Q: And the TGI [14]?
A: Its TGI is 7.2 µM.

Q: What about the GI50 [15] of the same compound?
A: The GI50 was 1.75 µM.

Q: And the TGI [15]?
A: Its TGI is over 100 µM.

Q: What about the GI50 [16] of the same compound?
A: The GI50 was 3.02 µM.

Q: And the TGI [16]?
A: The TGI was over 100 µM.

Q: What about the GI50 [17] of the same compound?
A: The GI50 was 1.03 µM.

Q: And the TGI [17]?
A: The TGI was over 100 µM.

Q: And the GI50 [18]?
A: The GI50 was 3.12 µM.

Q: What about the TGI [18] of the same compound?
A: The TGI was over 100 µM.

Q: And the GI50 [19]?
A: Its GI50 is 2.86 µM.

Q: What about the TGI [19] of the same compound?
A: The TGI was over 100 µM.

Q: And the GI50 [20]?
A: Its GI50 is 3.26 µM.

Q: What about the TGI [20] of the same compound?
A: The TGI was over 100 µM.

Q: And the GI50 [21]?
A: Its GI50 is 2.15 µM.

Q: And the TGI [21]?
A: Its TGI is 75.2 µM.

Q: What about the GI50 [22] of the same compound?
A: The GI50 was 2.05 µM.

Q: What about the TGI [22] of the same compound?
A: Its TGI is over 100 µM.

Q: And the GI50 [23]?
A: The GI50 was 1.86 µM.

Q: And the TGI [23]?
A: Its TGI is over 100 µM.

Q: And the GI50 [24]?
A: Its GI50 is 3.89 µM.

Q: What about the TGI [24] of the same compound?
A: Its TGI is over 100 µM.

Q: And the GI50 [25]?
A: Its GI50 is 4.4 µM.

Q: What about the TGI [25] of the same compound?
A: Its TGI is over 100 µM.

Q: What about the GI50 [26] of the same compound?
A: The GI50 was 1.64 µM.

Q: What about the TGI [26] of the same compound?
A: The TGI was over 100 µM.

Q: What about the GI50 [27] of the same compound?
A: Its GI50 is 5.71 µM.

Q: And the TGI [27]?
A: The TGI was over 100 µM.

Q: What about the GI50 [28] of the same compound?
A: Its GI50 is 2.17 µM.

Q: And the TGI [28]?
A: The TGI was 32.2 µM.

Q: And the GI50 [29]?
A: Its GI50 is 1.83 µM.

Q: And the TGI [29]?
A: The TGI was over 100 µM.

Q: What about the GI50 [30] of the same compound?
A: Its GI50 is 0.326 µM.

Q: What about the TGI [30] of the same compound?
A: The TGI was 4.35 µM.

Q: And the GI50 [31]?
A: The GI50 was over 100 µM.

Q: What about the TGI [31] of the same compound?
A: The TGI was over 100 µM.

Q: What about the GI50 [32] of the same compound?
A: Its GI50 is 1.34 µM.

Q: And the TGI [32]?
A: The TGI was over 100 µM.

Q: And the GI50 [33]?
A: Its GI50 is 0.653 µM.

Q: What about the TGI [33] of the same compound?
A: Its TGI is over 100 µM.

Q: And the GI50 [34]?
A: Its GI50 is 4.46 µM.

Q: And the TGI [34]?
A: Its TGI is over 100 µM.

Q: And the GI50 [35]?
A: The GI50 was 2.49 µM.

Q: And the TGI [35]?
A: Its TGI is 14.9 µM.

Q: And the GI50 [36]?
A: The GI50 was 1.75 µM.

Q: What about the TGI [36] of the same compound?
A: The TGI was over 100 µM.

Q: And the GI50 [37]?
A: The GI50 was 1.56 µM.

Q: And the TGI [37]?
A: The TGI was over 100 µM.

Q: And the GI50 [38]?
A: The GI50 was 2.21 µM.

Q: And the TGI [38]?
A: Its TGI is over 100 µM.

Q: And the GI50 [39]?
A: The GI50 was 0.445 µM.

Q: What about the TGI [39] of the same compound?
A: Its TGI is over 100 µM.

Q: And the GI50 [40]?
A: Its GI50 is 1.84 µM.

Q: What about the TGI [40] of the same compound?
A: The TGI was over 100 µM.

Q: And the GI50 [41]?
A: The GI50 was 1.44 µM.

Q: What about the TGI [41] of the same compound?
A: The TGI was over 100 µM.

Q: And the GI50 [42]?
A: Its GI50 is 0.296 µM.

Q: And the TGI [42]?
A: The TGI was over 100 µM.

Q: And the GI50 [43]?
A: The GI50 was 3.17 µM.

Q: And the TGI [43]?
A: The TGI was over 100 µM.

Q: And the GI50 [44]?
A: Its GI50 is 1.82 µM.

Q: What about the TGI [44] of the same compound?
A: Its TGI is over 100 µM.

Q: What about the GI50 [45] of the same compound?
A: Its GI50 is 0.927 µM.

Q: And the TGI [45]?
A: Its TGI is 10.7 µM.

Q: And the GI50 [46]?
A: Its GI50 is 4.01 µM.

Q: What about the TGI [46] of the same compound?
A: Its TGI is over 100 µM.

Q: What about the GI50 [47] of the same compound?
A: Its GI50 is 3.43 µM.

Q: What about the TGI [47] of the same compound?
A: Its TGI is over 100 µM.

Q: What about the GI50 [48] of the same compound?
A: Its GI50 is 1.09 µM.

Q: And the TGI [48]?
A: Its TGI is 6.66 µM.

Q: And the GI50 [49]?
A: Its GI50 is 0.549 µM.

Q: And the TGI [49]?
A: The TGI was over 100 µM.

Q: What about the GI50 [50] of the same compound?
A: Its GI50 is 2.72 µM.

Q: What about the TGI [50] of the same compound?
A: The TGI was over 100 µM.

Q: What about the GI50 [51] of the same compound?
A: The GI50 was 3.25 µM.

Q: What about the TGI [51] of the same compound?
A: Its TGI is 69.1 µM.

Q: What about the GI50 [52] of the same compound?
A: Its GI50 is 2.49 µM.

Q: What about the TGI [52] of the same compound?
A: Its TGI is over 100 µM.

Q: And the GI50 [53]?
A: The GI50 was 2.42 µM.

Q: And the TGI [53]?
A: Its TGI is 66.5 µM.

Q: What about the GI50 [54] of the same compound?
A: Its GI50 is over 100 µM.

Q: And the TGI [54]?
A: Its TGI is over 100 µM.

Q: And the GI50 [55]?
A: The GI50 was 8.93 µM.

Q: And the TGI [55]?
A: The TGI was over 100 µM.

Q: What about the GI50 [56] of the same compound?
A: Its GI50 is 2.69 µM.

Q: And the TGI [56]?
A: Its TGI is over 100 µM.

Q: And the GI50 [57]?
A: Its GI50 is 0.417 µM.

Q: What about the TGI [57] of the same compound?
A: The TGI was 2.44 µM.

Q: And the GI50 [58]?
A: The GI50 was 1.71 µM.

Q: And the TGI [58]?
A: Its TGI is 6.44 µM.
